Measurements: patent US20150283227A1, “SYNTHETIC ENV PROTEINS” (priority 2012, published 2015)
“Also recorded” adds a separate entry of the source. Read-outs that look alike come from different tables or passages of the source. Marks after values point to notes of the source that are not given here.

What was measured:
[1] = tested on: BnAb PG9; format: binding, human
Method: V1V2 glycopeptide binding Kd and rate constant measurements were carried out on a BIAcore 3000 instrument using an anti-human Ig Fc capture assay as described earlier (Alam, S. M.; McAdams, M.; Boren, D.; Rak, M.; Scearce, R. M.; Gao, F.; Camacho, Z. T.; Gewirth, D.; Kelsoe, G.; Chen, P.; Haynes, B. F. J. Immunol. 2007, 178, 4424-4435.). Anti-human IgG Fc antibody (Sigma Chemicals) was immobilized on a CM5 sensor chip to about 10000 response units (RU), and each antibody was captured to about 300 RU. Anti-RSV Synagis mAb was captured on the same sensor chip as a control surface. Non-specific binding and drift in signal was double referenced by subtracting binding to the control surface and blank buffer flow for each of the peptide binding interactions. All curve-fitting analyses were performed using global fit of multiple titrations to the 1:1 Langmuir model. All data analysis was performed using the BIAevaluation 4.1 analysis software (GE Healthcare).

[2] = target: Man5GlcNAc2 V1V2 glycopeptide, DMSO-oxidized disulfide-linked dimer (HIV-1 strain AE.CM244 (A244)); assay: SPR kinetics, mAb captured on anti-IgG, DMSO-oxidized dimer injected; 1:1 Langmuir
[3] = target: Man3GlcNAc2 V1V2 glycopeptide, DMSO-oxidized disulfide-linked dimer (HIV-1 strain AE.CM244 (A244)); assay: as above
[4] = target: CH58 UCA; assay: SPR binding to unmutated ancestor of CH58; design: species or system human; settings: Example 6; CH58 UCA; DMSO-oxidized dimer, 1-10 μg/mL
Method: (§1) Only the V1/V2 mAb CH58 bound to the glycan-deficient (aglycone) peptide (FIG. 9A). V1/V2 bNAbs ([…], CH01) bound weakly to V1/V2 GlcNAc2 peptide (FIG. 9B). In contrast, both bNAbs PG9 and CH01 bound avidly to the glycopeptides, V1/V2 Man3GlcNAc2 and V1/V2 Man5GlcNAc2 (FIGS. 9C and 9D). CH58 bound weakly to both glycopeptides. Each of the mAbs was captured on a human Fc specific IgG directly immobilized on a BIAcore CM5 sensor chip. Each of the V1/V2 peptides (3 min at 50 uL/min) was injected over the mAb captured surface and SPR binding was monitored on a BIAcore 3000 instrument. Non-specific binding of peptides was subtracted following measurement of signal on a surface with a control ant-RSV mab Synagis.
(§2) V1V2 glycopeptide binding Kd and rate constant measurements were carried out on BIAcore 3000 instruments as described earlier (Alam et al, Immunol. 178(7):4424-4435 (2007), Alam et al, J. Virol. 82(1):115-125 (2008)). Anti-human IgG Fc antibody (Sigma Chemicals) was immobilized on either a CM3 or CM5 (CM3 for kinetics and Kd determination) sensor chip (to minimize non-specific binding of peptides to chip matrix) to about 5000 Resonance Unit (RU) and each antibody was captured to about 100-200 RU on individual flow cells, in addition to one flow cell with the control Synagis mAb on the same sensor chip. Non-specific binding of V1V2 glycopeptide was double-referenced by substracting the control surface and blank buffer flow for each mAb-V1V2 glycopeptide binding interaction. […] SPR curve fitting analysis was performed using global fit of multiple titrations to the 1:1 Langmuir model. All data analysis was performed using the BIAevaluation 4.1 analysis software (GE Healthcare).

[5] = Circular dichroism analysis of V1V2 peptides; format: physicochemical; settings: dimerized in 20% DMSO-phosphate buffer about 20 h
Method: Circular dichroism (CD) spectra of V1/V2 peptides were measured on an Aviv model 202 spectropolarimeter using a 1 mm path length quartz cuvette. The 20% DMSO-treated peptides were dialyzed against 20 mM phosphate buffer, pH 7.0 to remove DMSO using a dialysis cassette of MW cut-off 3500 Da. The CD spectra of peptides (at 100 200 μg/ml concentration) in phosphate buffer (pH 7.4) were recorded at 25° C. Three scans of the CD spectra of each peptide were averaged and the CD signal from phosphate buffer was subtracted out.

[6] = tested on: BnAb CH01; assay: SPR binding of V1V2 peptides/glycopeptides to captured mAb CH01; design: species or system human
[7] = tested on: PG9 UCA; assay: SPR binding to unmutated ancestor of PG9; design: species or system human
Method: as §1
(§3) The binding Kd (disassociation constant) of the UAs ranges from about 0.15 to 0.2 μM.
as §2

[8] = tested on: CH01 UCA; assay: SPR binding to unmutated ancestor of CH01; design: species or system human
Method: as §1, §3, §2

[9] = tested on: V2 mAb CH58; assay: SPR binding of V1V2 peptides/glycopeptides to captured V2 mAb CH58; design: species or system human
[10] = Example 6, iodine-oxidized glycopeptide, 50 ug/mL
[11] = Example 6, spontaneously (air) oxidized, phosphate buffer, 50 ug/mL

CC(=O)N[C@H]1[C@H](O[C@H]2[C@H](O)[C@@H](NC(C)=O)C(O)O[C@@H]2CO)O[C@H](CO)[C@@H](O[C@@H]2O[C@H](CO[C@H]3O[C@H](CO[C@H]4O[C@H](CO)[C@@H](O)[C@H](O)[C@@H]4O)[C@@H](O)[C@H](O[C@H]4O[C@H](CO)[C@@H](O)[C@H](O)[C@@H]4O)[C@@H]3O)[C@@H](O)[C@H](O[C@H]3O[C@H](CO)[C@@H](O)[C@H](O)[C@@H]3O)[C@@H]2O)[C@@H]1O (stereo partly drawn) [Man5GlcNAc2 glycan alone, reference compound]
SPR binding to PG9 ([1]; Example 5, peptides 200 μg/mL, glycans 25 μg/mL over captured PG9): not detected

CH01 (antibody)
Kd [2]: 45.5 nM
koff [2]: 0.000302 s⁻¹
kon [2]: 6640 M⁻¹ s⁻¹
Kd [3]: 32.1 nM
koff [3]: 0.00032 s⁻¹
kon [3]: 9970 M⁻¹ s⁻¹

Man3GlcNAc2 V1V2
Kd [4]: 600 nM
β-strand (CD spectra deconvolution, K2D3) [5]: 33%
SPR binding to CH01 ([6]; Example 1, peptide injected over captured mAb, listed as V1/V2 Man3GlcNAc2): bound avidly; also recorded: bind selectively
SPR binding to CH01 [6, 10]: not to the BnAbs CH01 or PG9
SPR binding to CH01 [6, 11]: weak or no binding
ka ([6]; Table 1, CH01, DMSO-oxidized dimer): 9.97 M^−1s^−1 (×10^3)
SPR binding to PG9 UA ([7]; Example 1): binds
SPR binding to PG9 UCA ([7]; Example 6): bound
Kd ([7]; Example 6, PG9 UCA, DMSO-oxidized dimer): 1100 nM
Kd ([7]; Example 6, PG9 UCA, DMSO-oxidized dimer, derived using faster component of dissociation phase): 1060 nM
ka ([7]; Table 1, PG9 UCA, DMSO-oxidized dimer): 5.33 M^−1s^−1 (×10^3)
SPR binding to PG9 ([1]; Example 1, peptide injected over mAb captured on anti-human Fc, BIAcore 3000, listed as V1/V2 Man3GlcNAc2): bound avidly; also recorded: bind selectively
Kd ([1]; Example 5, PG9, read-out: Kd (order of magnitude)): ~100 nM
Kd ([1]; Example 5, glycopeptide 1-40 μg/mL over captured PG9, not deliberately oxidized, global fit 1:1 Langmuir, read-out: Kd): 119 nM
Kd ([1]; Example 6, PG9, glycopeptide fully oxidized in 20% DMSO (dimer), listed as Man3, read-out: Kd): 37 nM
Kd ([1]; Example 6, PG9, glycopeptide fully oxidized in 20% DMSO (dimer), listed as Man3 GlcNAc2, read-out: Kd): 37.1 nM
SPR binding to PG9 [1, 11]: weak or no binding
ka ([1]; Table 1, PG9, glycopeptide fully oxidized in 20% DMSO (dimer)): 3.97 M^−1s^−1 (×10^3)
SPR binding to CH01 UA ([8]; Example 1): binds
SPR binding to CH01 UCA ([8]; Example 6): bound
Kd ([8]; Example 6, CH01 UCA, DMSO-oxidized dimer): 1800 nM
Kd ([8]; Example 6, CH01 UCA, DMSO-oxidized dimer, derived using faster component of dissociation phase): 1780 nM
ka ([8]; Table 1, CH01 UCA, DMSO-oxidized dimer): 2.06 M^−1s^−1 (×10^3)
SPR binding to CH58 ([9]; Example 1, antigen injected over captured mAb): bound weakly
SPR binding to CH58 [9, 10]: bound
SPR binding to CH58 [9, 11]: show binding
